From US9006487B2, “Amine-containing lipids and uses thereof” (Massachusetts Institute of Technology, priority 2005, dated 2015)

Tested on: cos-7 cells
Assay: DNA transfection: luciferase expression relative to Lipofectamine 2000
Assay type: cell-based
Details: for Luciferase expression as a percentage of that achieved using Lipofectamine 2000: 300 ng Luciferase DNA per well; for Luciferase expression as a percentage of that achieved using Lipofectamine 2000 / % of the luciferase activity obtained from the use of Lipofectamine 2000: luciferase assay after 48 hours; for % of the luciferase activity obtained from the use of Lipofectamine 2000: 300 ng DNA per well; for luciferase expression (second part of table, values relative to LIPO2000): 300 ng of DNA per well
How it was run: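 cos-7 cells were transfected with 300 ng/well luciferase DNA complexed with lipid at ratios from 2.5 to 25 w/w. Bright-Glo luminescence was read after 48 hours and converted to ng luciferase by standard curve. Data are percent of the Lipofectamine 2000 control (2.5 w/w).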

SMILES: CCCCCCCCCCCCCCOC(=O)CC[N+](C)(CCCOC)CCC(=O)OCCCCCCCCCCCCCC.[I-] [QF1]
- Luciferase expression as a percentage of that achieved using Lipofectamine 2000 (lipid/DNA 2.5 w/w): 0.4%
- Luciferase expression as a percentage of that achieved using Lipofectamine 2000 (lipid/DNA 5 w/w): 0.3%
- Luciferase expression as a percentage of that achieved using Lipofectamine 2000 (lipid/DNA 10 w/w): 0.4%
- Luciferase expression as a percentage of that achieved using Lipofectamine 2000 (lipid/DNA 15 w/w): 0.3%
- Luciferase expression as a percentage of that achieved using Lipofectamine 2000 (lipid/DNA 20 w/w): 0.3%
- Luciferase expression as a percentage of that achieved using Lipofectamine 2000 (lipid/DNA 25 w/w): 0.3%

SMILES: CCCCCCCCCCCCCCOC(=O)CC[N+](C)(CCC(=O)OCCCCCCCCCCCCCC)CCC1OCCO1.[I-] [QF6]
- Luciferase expression as a percentage of that achieved using Lipofectamine 2000 (lipid/DNA 2.5 w/w): 0.0%
- Luciferase expression as a percentage of that achieved using Lipofectamine 2000 (lipid/DNA 5 w/w): 0.0%
- Luciferase expression as a percentage of that achieved using Lipofectamine 2000 (lipid/DNA 10 w/w): 0.0%
- Luciferase expression as a percentage of that achieved using Lipofectamine 2000 (lipid/DNA 15 w/w): 0.0%
- Luciferase expression as a percentage of that achieved using Lipofectamine 2000 (lipid/DNA 20 w/w): 0.0%
- Luciferase expression as a percentage of that achieved using Lipofectamine 2000 (lipid/DNA 25 w/w): 0.0%

SMILES: CCCCCCCCCCCCCCOC(=O)CC[N+](C)(CCC(=O)OCCCCCCCCCCCCCC)CC1COC(C)(C)O1.[I-] (stereo not drawn) [QF7]
- Luciferase expression as a percentage of that achieved using Lipofectamine 2000 (lipid/DNA 2.5 w/w): 0.0%
- Luciferase expression as a percentage of that achieved using Lipofectamine 2000 (lipid/DNA 5 w/w): 0.0%
- Luciferase expression as a percentage of that achieved using Lipofectamine 2000 (lipid/DNA 10 w/w): 0.0%
- Luciferase expression as a percentage of that achieved using Lipofectamine 2000 (lipid/DNA 15 w/w): 0.0%
- Luciferase expression as a percentage of that achieved using Lipofectamine 2000 (lipid/DNA 20 w/w): 0.0%
- Luciferase expression as a percentage of that achieved using Lipofectamine 2000 (lipid/DNA 25 w/w): 0.0%

SMILES: CCCCCCCCCCCCCCOC(=O)CC[N+](C)(CCC(=O)OCCCCCCCCCCCCCC)CCC1CCC[N+]1(C)C.[I-].[I-] (stereo not drawn) [QF77]
- Luciferase expression as a percentage of that achieved using Lipofectamine 2000 (lipid/DNA 2.5 w/w): 0.4%
- Luciferase expression as a percentage of that achieved using Lipofectamine 2000 (lipid/DNA 5 w/w): 0.4%
- Luciferase expression as a percentage of that achieved using Lipofectamine 2000 (lipid/DNA 10 w/w): 0.7%
- Luciferase expression as a percentage of that achieved using Lipofectamine 2000 (lipid/DNA 15 w/w): 1.3%
- Luciferase expression as a percentage of that achieved using Lipofectamine 2000 (lipid/DNA 20 w/w): 2.7%
- Luciferase expression as a percentage of that achieved using Lipofectamine 2000 (lipid/DNA 25 w/w): 9.9%

SMILES: CCCCCCCCCCCCCCCOC(=O)CC[N+](C)(CCCOC)CCC(=O)OCCCCCCCCCCCCCCC.[I-] [QG1]
- Luciferase expression as a percentage of that achieved using Lipofectamine 2000 (lipid/DNA 2.5 w/w): 0.4%
- Luciferase expression as a percentage of that achieved using Lipofectamine 2000 (lipid/DNA 5 w/w): 0.5%
- Luciferase expression as a percentage of that achieved using Lipofectamine 2000 (lipid/DNA 10 w/w): 0.4%
- Luciferase expression as a percentage of that achieved using Lipofectamine 2000 (lipid/DNA 15 w/w): 0.4%
- Luciferase expression as a percentage of that achieved using Lipofectamine 2000 (lipid/DNA 20 w/w): 0.3%
- Luciferase expression as a percentage of that achieved using Lipofectamine 2000 (lipid/DNA 25 w/w): 0.3%

SMILES: CCCCCCCCCCCCCCCOC(=O)CC[N+](C)(CCC(=O)OCCCCCCCCCCCCCCC)CCC1OCCO1.[I-] [QG6]
- Luciferase expression as a percentage of that achieved using Lipofectamine 2000 (lipid/DNA 2.5 w/w): 0.0%
- Luciferase expression as a percentage of that achieved using Lipofectamine 2000 (lipid/DNA 5 w/w): 0.0%
- Luciferase expression as a percentage of that achieved using Lipofectamine 2000 (lipid/DNA 10 w/w): 0.0%
- Luciferase expression as a percentage of that achieved using Lipofectamine 2000 (lipid/DNA 15 w/w): 0.0%
- Luciferase expression as a percentage of that achieved using Lipofectamine 2000 (lipid/DNA 20 w/w): 0.0%
- Luciferase expression as a percentage of that achieved using Lipofectamine 2000 (lipid/DNA 25 w/w): 0.0%

SMILES: CCCCCCCCCCCCCCCOC(=O)CC[N+](C)(CCC(=O)OCCCCCCCCCCCCCCC)CC1COC(C)(C)O1.[I-] (stereo not drawn) [QG7]
- Luciferase expression as a percentage of that achieved using Lipofectamine 2000 (lipid/DNA 2.5 w/w): 0.4%
- Luciferase expression as a percentage of that achieved using Lipofectamine 2000 (lipid/DNA 5 w/w): 0.3%
- Luciferase expression as a percentage of that achieved using Lipofectamine 2000 (lipid/DNA 10 w/w): 0.5%
- Luciferase expression as a percentage of that achieved using Lipofectamine 2000 (lipid/DNA 15 w/w): 0.3%
- Luciferase expression as a percentage of that achieved using Lipofectamine 2000 (lipid/DNA 20 w/w): 0.4%
- Luciferase expression as a percentage of that achieved using Lipofectamine 2000 (lipid/DNA 25 w/w): 0.3%

SMILES: CCCCCCCCCCCCCCCOC(=O)CC[N+](C)(CCC(=O)OCCCCCCCCCCCCCCC)CCC1CCC[N+]1(C)C.[I-].[I-] (stereo not drawn) [QG77]
- Luciferase expression as a percentage of that achieved using Lipofectamine 2000 (lipid/DNA 2.5 w/w): 0.5%
- Luciferase expression as a percentage of that achieved using Lipofectamine 2000 (lipid/DNA 5 w/w): 0.6%
- Luciferase expression as a percentage of that achieved using Lipofectamine 2000 (lipid/DNA 10 w/w): 1.5%
- Luciferase expression as a percentage of that achieved using Lipofectamine 2000 (lipid/DNA 15 w/w): 5.6%
- Luciferase expression as a percentage of that achieved using Lipofectamine 2000 (lipid/DNA 20 w/w): 18.8%
- Luciferase expression as a percentage of that achieved using Lipofectamine 2000 (lipid/DNA 25 w/w): 29.5%

SMILES: CCCCCCCCCCCCCCCOC(=O)CC[N+](C)(CCC[N+](C)(CCO)CCO)CCC(=O)OCCCCCCCCCCCCCCC [QG87]
- % of the luciferase activity obtained from the use of Lipofectamine 2000 (2.5 w/w lipid to DNA): 89.0%
- % of the luciferase activity obtained from the use of Lipofectamine 2000 (5 w/w lipid to DNA): 94.0%
- % of the luciferase activity obtained from the use of Lipofectamine 2000 (10 w/w lipid to DNA): 42.4%
- % of the luciferase activity obtained from the use of Lipofectamine 2000 (15 w/w lipid to DNA): 64.7%
- % of the luciferase activity obtained from the use of Lipofectamine 2000 (20 w/w lipid to DNA): 62.1%
- % of the luciferase activity obtained from the use of Lipofectamine 2000 (25 w/w lipid to DNA): 44.1%
- luciferase expression (second part of table, values relative to LIPO2000) (lipid/DNA 2.5 w/w): 89.0
- luciferase expression (second part of table, values relative to LIPO2000) (lipid/DNA 5 w/w): 94.0
- luciferase expression (second part of table, values relative to LIPO2000) (lipid/DNA 10 w/w): 42.4
- luciferase expression (second part of table, values relative to LIPO2000) (lipid/DNA 15 w/w): 64.7
- luciferase expression (second part of table, values relative to LIPO2000) (lipid/DNA 20 w/w): 62.1
- luciferase expression (second part of table, values relative to LIPO2000) (lipid/DNA 25 w/w): 44.1

SMILES: CCCCCCCCCCCCCCCOC(=O)CC[N+](C)(CCC[N+](C)(CCC(=O)OCCCCCCCCCCCCCCC)CCC(=O)OCCCCCCCCCCCCCCC)CCC(=O)OCCCCCCCCCCCCCCC [QG100]
- % of the luciferase activity obtained from the use of Lipofectamine 2000 (2.5 w/w lipid to DNA): 11.2%
- % of the luciferase activity obtained from the use of Lipofectamine 2000 (5 w/w lipid to DNA): 32.1%
- % of the luciferase activity obtained from the use of Lipofectamine 2000 (10 w/w lipid to DNA): 57.1%
- % of the luciferase activity obtained from the use of Lipofectamine 2000 (15 w/w lipid to DNA): 102.6%
- % of the luciferase activity obtained from the use of Lipofectamine 2000 (20 w/w lipid to DNA): 93.0%
- % of the luciferase activity obtained from the use of Lipofectamine 2000 (25 w/w lipid to DNA): 94.5%
- luciferase expression (second part of table, values relative to LIPO2000) (lipid/DNA 2.5 w/w): 11.2
- luciferase expression (second part of table, values relative to LIPO2000) (lipid/DNA 5 w/w): 32.1
- luciferase expression (second part of table, values relative to LIPO2000) (lipid/DNA 10 w/w): 57.1
- luciferase expression (second part of table, values relative to LIPO2000) (lipid/DNA 15 w/w): 102.6
- luciferase expression (second part of table, values relative to LIPO2000) (lipid/DNA 20 w/w): 93.0
- luciferase expression (second part of table, values relative to LIPO2000) (lipid/DNA 25 w/w): 94.5
